According to patent US6440980B1, “Synergistic inhibition of viral replication by long-chain hydrocarbons and nucleoside analogs” (Avanir Pharmaceuticals, priority 1996, dated 2002):
pEC50, pIC50: −log10 of the molar value. Where two headings read alike, the source gives them in different places.

Tests used:
HSV-2 = experiment: Inhibition of HSV-2 plaque formation in Vero cells; conditions: for EC50: read-out: 50% Inhibition Concentration (mM); for inhibition of viral plaque production at concentrations that were not cytotoxic: 0.2 μM stearyl alcohol, 2 μM arachidyl alcohol; for 50% Inhibition Concentration (mM): alcohol suspension in PLURONIC F-68, Vero cells incubated 12 hr before HSV-2, linear regression, Toxic = monolayer destroyed by end of 12-hour incubation with at least 1.5 mM; for Percent Inhibition of Plaque Formation: PLURONIC F-68 suspension added 12 hr before HSV-2 (erucyl alcohol with the virus), Toxic = monolayer destroyed within 24 hr
all cell lines tested = experiment: Cytotoxicity in mammalian cell cultures; conditions: for pIC50: read-out: IC50 (cellular toxicity by chain length)
Description: Three assays were used to quantitate the effects of aliphatic alcohols on cell survival and proliferation: 1) counting cells with a hemocytometer and determining the number of cells that exclude trypan blue; 2) measuring the incorporation of ^3H-thymidine into cellular DNA by adding ^3H-thymidine (from New England Nuclear) to the culture medium, lysing the cells with water and harvesting the DNA onto filter paper; and 3) measuring total cellular protein using a sulforhodamine assay adapted for use in 96-well microtiter plates (Skehan et al., J. Natl. Cancer Inst. […] All of these methods are well known cell viability and cytotoxicity assays.

HSV-1 = HSV-1 PFU production in Vero cell cultures; assay type: cell-based, HSV-1 (MacIntyre strain)
vaccinia virus = experiment: microbe, parasite or virus in culture; assay type: cell-based, vaccinia virus (WR strain); conditions: for pEC50: read-out: EC50 for inhibition of vaccinia virus replication
[1] = system: human foreskin fibroblasts; experiment: Cell proliferation (cytostasis), sulforhodamine staining; assay type: cell-based; conditions: 1,000 cells/well, 96-hours incubation
Procedure: The effects of n-docosanol and n-docosane suspensions on cell proliferation (cytostasis) were quantitated using the sulforhodamine staining assay on cultures of human foreskin fibroblasts incubated in 96-well plates.
Foreskin fibroblasts were plated with or without aliphatic alcohol suspensions or control surfactant suspensions at 1,000 cells/well (FIG. 6A and FIG. 7) or at 30,000 cells/well (FIG. 6B) in 96 well plates. After incubation for 72 hr or 96 hr at 37° C., cells were precipitated with trichloroacetic acid, stained with sulforhodamine and quantitated by measuring the OD540 in a microtiter plate reader.

Vero cells [2] = conditions: African green monkey
B cell hybridoma (MBI-9) = experiment: 3H-thymidine incorporation into DNA of B cell hybridoma; assay type: cell-based, murine; conditions: Mus musculus, read-out: IC50 (3H-thymidine incorporation)
Vero cells [3] = experiment: Cytotoxicity to Vero cells (monolayer integrity, trypan blue exclusion); conditions: surfactant suspension
influenza virus = assay type: in vivo, human; conditions: for highest recorded body temperature (mean): erucyl alcohol 0.15 mM five times per day, erucamide 1.5 mM three times per day, untreated 38.9; for mean duration of flu symptoms: untreated 3 days
[4] = Human alphaherpesvirus 1, Vero, 72 h, read-out: EC90 for inhibition of HSV-1 PFU production, drug used alone
[5] = Orthopoxvirus vaccinia, Vero, 72 h
[6] = 15 mM n-docosanol, 500 PFU/culture, three days, read-out: EC90 for inhibition of HSV-1 PFU production in the presence of n-docosanol
[7] = Human alphaherpesvirus 2, Vero, read-out: Percent Inhibition of Plaque Formation

For `CCCCCCCCCCCCCCCCCCCCCCCCCCCCO` [n-octacosanol], the EC50 (HSV-2; Human alphaherpesvirus 2, Vero) was 10.5 mM and the “cytotoxicity of the suspensions (in words)” value (from here on “cytotoxicity”) (all cell lines tested) was “same minimal level of cytotoxicity”.

In the case of `O=c1[nH]c(=O)n([C@H]2C[C@H](O)[C@@H](CO)O2)cc1C(F)(F)F` [Trifluridine, trifluridine deoxyriboside], the “reduction of EC90 by n-docosanol” value (HSV-1; 15 mM n-docosanol) was 5 fold, the EC90 (HSV-1; [4]) was about 6.8 µM and the EC90 (HSV-1; read-out: EC90 for inhibition of HSV-1 PFU production in the presence of n-docosanol, 15 mM n-docosanol, 500 PFU/culture, three days) was about 1.35 µM. It also gave a pEC50 (vaccinia virus; [5]) of about 5.70.

With `O=C(O)P(=O)(O)O` [PFA, phosphonoformic acid] the EC90 (HSV-1; [6]) was 17 µM, the EC90 (HSV-1; Human alphaherpesvirus 1, Vero, 72 h, control cultures without n-docosanol, 500 PFU/culture, three days, read-out: EC90 for inhibition of HSV-1 PFU production, drug used alone) was about 18 µM and the “interaction of n-docosanol with the antiviral activity of PFA against vaccinia virus” value (vaccinia virus; presence or absence of n-docosanol or PLURONIC F-68) was “no drug-drug interaction”.

`CCCCCCCCCCCCCCCCCCCCCC` [n-docosane] was tested, and the “antiproliferation effects compared to the surfactant control” value [1] was “minimal antiproliferation effects”, the inhibition at 1000 µM (HSV-2; [7]) was 28% and the inhibition at 2000 µM (HSV-2; [7]) was 31%. The inhibition at 4000 µM (HSV-2; [7]) was 42%, the inhibition at 8000 µM (HSV-2; [7]) was 55% and the inhibition at 15000 µM (HSV-2; [7]) was 58%.

In the case of `CCCCCCCCCCCCCCCCCCCCCO` [heneicosanol], the EC50 (HSV-2; Human alphaherpesvirus 2, Vero) was 16 mM, the pIC50 (all cell lines tested) was under 1.82 and the “cytotoxicity” value (all cell lines tested; surfactant suspensions) was “same minimal level of cytotoxicity”.

With `CCCCCCCCCCCCCCCCCCCCO` [arachidyl alcohol] the “concentration that was not cytotoxic” value (Vero cells [2]) was 2 µM, the pIC50 (B cell hybridoma (MBI-9); 48 hr incubation) was about 2.77 and the “inhibition of viral plaque production at concentrations that were not cytotoxic” value (HSV-2) was “no inhibition of viral plaque production”. For the same compound, the “50% Inhibition Concentration (mM)” value (HSV-2) was “Toxic**”, the pIC50 (all cell lines tested) was 2.82 and the “cytotoxicity” value (all cell lines tested; surfactant suspensions) was “extremely cytotoxic”.

In the case of `CCCCCCCCCCCCCCCCCCO` [stearyl alcohol], the pIC50 (B cell hybridoma (MBI-9)) was over 4.46, the “inhibition of viral plaque production at concentrations that were not cytotoxic” value (HSV-2) was “no inhibition of viral plaque production” and the “50% Inhibition Concentration (mM)” value (HSV-2) was “Toxic**”. It also gave a pIC50 (all cell lines tested) of over 4.46.

With `CCCCCCCCCCCCCCCCCCCCCCCCO` [lignoceryl alcohol, n-tetracosanol] the EC50 (HSV-2; Human alphaherpesvirus 2, Vero) was 14.1 mM and the “cytotoxicity” value (all cell lines tested; surfactant suspensions) was “same minimal level of cytotoxicity”.

With `CCCCCCCCCCCCCCCCCCCCCC(=O)O` [n-docosanoic acid] the “concentrations tolerable to the cells” value (Vero cells [3]) was at most 2000 µM, the “Percent Inhibition of Plaque Formation” value (HSV-2; 4 mM) was “Toxic” and the “Percent Inhibition of Plaque Formation” value (HSV-2; 8 mM) was “Toxic”. For the same compound, the “Percent Inhibition of Plaque Formation” value (HSV-2; 15 mM) was “Toxic^†”, the inhibition at 500 µM (HSV-2; [7]) was 26% and the inhibition at 1000 µM (HSV-2; [7]) was 16%. It also gave an inhibition at 2000 µM (HSV-2; [7]) of 30%.

For `CCCCCCCC/C=C\CCCCCCCCCCCC(N)=O` [erucamide, cis-13-docosenoamide], the “concentrations toxic to Vero cells (cells rounded and detached)” value (Vero cells [2]) was at least 3000 µM, the “highest recorded body temperature (mean)” value (influenza virus) was “about 37 °C” and the “mean duration of flu symptoms” value (influenza virus) was “two”. For the same compound, the “concentrations tolerable to the cells” value (Vero cells [3]) was at most 1700 µM, the inhibition at 30 µM (HSV-2; [7]) was 34% and the inhibition at 590 µM (HSV-2; [7]) was 42%. It also gave an inhibition at 890 µM (HSV-2; [7]) of 44%, an inhibition at 1200 µM (HSV-2; [7]) of 58% and an inhibition at 1500 µM (HSV-2; [7]) of 68%. It also gave an inhibition at 1700 µM (HSV-2; [7]) of 78%.

`Nc1ncnc2c1ncn2[C@@H]1O[C@H](CO)[C@@H](O)[C@@H]1O` [Ara-A, Adenine 9-β-D-arabinofuranoside] was tested, and the “reduction of EC90 by n-docosanol” value (HSV-1; 15 mM n-docosanol) was 16 fold, the EC90 (HSV-1; [6]) was about 1.4 µM and the EC90 (HSV-1; control cultures without n-docosanol, 500 PFU/culture, three days, read-out: EC90 for inhibition of HSV-1 PFU production, drug used alone) was about 22 µM. It also gave a pEC50 (vaccinia virus; control cultures (medium or PLURONIC F-68), 3 days post-infection) of about 4.70.

For `NC(=O)c1ncn([C@@H]2O[C@H](CO)[C@@H](O)[C@H]2O)n1` [ribavirin], the “reduction of EC90 by n-docosanol” value (HSV-1; 15 mM n-docosanol) was 75 fold, the EC90 (HSV-1; [6]) was about 0.33 µM and the EC90 (HSV-1; [4]) was about 24.6 µM. The pEC50 (vaccinia virus; [5]) was about 4.60.

With `CCCCCCCC/C=C\CCCCCCCCCCCCO` [erucyl alcohol, cis-13-docosen-1-ol] the “concentrations tolerable to the cells” value (Vero cells [2]) was at most 1000 µM, the “concentrations toxic to Vero cells (cells rounded and detached)” value (Vero cells [2]) was 2000 to 15000 µM and the “highest recorded body temperature (mean)” value (influenza virus) was 37.8 °C. For the same compound, the “mean duration of flu symptoms” value (influenza virus) was 1.7 days, the “frequency of fever per flu episode” value (influenza virus; in vivo) was “one to three” and the “EC50 lower than the concentration required for n-docosanol” value (HSV-2; 0.15 mM vs 9 mM) was 60 fold. The “Percent Inhibition of Plaque Formation” value (HSV-2; 2 mM) was “Toxic”, the “Percent Inhibition of Plaque Formation” value (HSV-2; 4 mM) was “Toxic” and the “Percent Inhibition of Plaque Formation” value (HSV-2; 8 mM) was “Toxic”. The “Percent Inhibition of Plaque Formation” value (HSV-2; 15 mM) was “Toxic”, the direct virucidal effect (HSV-2; HSV-2 incubated with the suspension for 2 hours, subsequent plaque formation on Vero cells) was “did not inactivate the virus” and the inhibition at 250 µM (HSV-2; [7]) was 70%. For the same compound, the inhibition at 500 µM (HSV-2; [7]) was 91%, the inhibition at 1000 µM (HSV-2; [7]) was 93% and the pEC50 (HSV-2; Human alphaherpesvirus 2, Vero, read-out: effective concentration required to inhibit plaque formation by 50% (EC50), surfactant suspension, Example 5) was 3.82.
